From ChEMBL document CHEMBL1201862, “PubChem BioAssay data set” (2004)
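Five concentrations, 48 hours, 96-well plates. GI50 marks 50% less growth.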 Calls of active or inactive are those of the source. Rule as the data show it: active = GI50 up to about 1.1 µM and inactive = higher.

How the values were obtained:
Test in all cases: DTP human tumour cell line panel, 48 h
[1] = system: UACC-62
[2] = system: MOLT-4
[3] = system: SR
[4] = system: MDA-N
[5] = system: RPMI-8226
[6] = system: U-251
[7] = system: SF-295
[8] = system: EKVX
[9] = system: BT-549
[10] = system: Hs-578T
[11] = system: A549
[12] = system: OVCAR-4
[13] = system: MCF7
[14] = system: IGROV-1
[15] = system: SK-OV-3
[16] = system: NCI/ADR-RES
[17] = system: PC-3
[18] = system: UACC-257
[19] = system: OVCAR-8
[20] = system: SK-MEL-2

Row | SMILES | GI50 [1] | GI50 [2] | GI50 [3] | GI50 [4] | GI50 [5] | GI50 [6] | GI50 [7] | GI50 [8] | GI50 [9] | GI50 [10] | GI50 [11] | GI50 [12] | GI50 [13] | GI50 [14] | GI50 [15] | GI50 [16] | GI50 [17] | GI50 [18] | GI50 [19] | GI50 [20]
1 | Nc1ncnc2oc(C3OC(COC(=O)c4ccccc4)C(OC(=O)c4ccccc4)C3OC(=O)c3ccccc3)nc12 (stereo not given) | 74.8 µM (inactive) | > 100 µM (inactive) | > 100 µM (inactive) | > 100 µM (inactive) | > 100 µM (inactive) | > 100 µM (inactive) | > 100 µM (inactive) | > 100 µM (inactive) | > 100 µM (inactive) | 49.2 µM (inactive) | > 100 µM (inactive) | > 100 µM (inactive) | > 100 µM (inactive) | > 100 µM (inactive) | > 100 µM (inactive) | > 100 µM (inactive) | 98.6 µM (inactive) | > 100 µM (inactive) | > 100 µM (inactive) | –
2 | CCOP(=O)(OCC)C(C(=O)OC)C(=O)C(=O)Nc1cccc(O)c1 (stereo not given) | > 100 µM (inactive) | > 100 µM (inactive) | > 100 µM (inactive) | > 100 µM (inactive) | – | > 100 µM (inactive) | > 100 µM (inactive) | > 100 µM (inactive) | > 100 µM (inactive) | > 100 µM (inactive) | > 100 µM (inactive) | > 100 µM (inactive) | > 100 µM (inactive) | > 100 µM (inactive) | > 100 µM (inactive) | > 100 µM (inactive) | > 100 µM (inactive) | > 100 µM (inactive) | > 100 µM (inactive) | > 100 µM (inactive)
3 | CC(=O)OCC1OC(Nn2c(=O)[nH]c3ccccc3c2=O)C(OC(C)=O)C(OC(C)=O)C1OC(C)=O (stereo not given) | > 100 µM (inactive) | 97.7 µM (inactive) | > 100 µM (inactive) | > 100 µM (inactive) | > 100 µM (inactive) | > 100 µM (inactive) | > 100 µM (inactive) | > 100 µM (inactive) | > 100 µM (inactive) | > 100 µM (inactive) | > 100 µM (inactive) | – | > 100 µM (inactive) | > 100 µM (inactive) | > 100 µM (inactive) | > 100 µM (inactive) | > 100 µM (inactive) | 35.3 µM (inactive) | > 100 µM (inactive) | > 100 µM (inactive)
4 | CN1c2ccccc2S(=O)(=O)n2c(CCc3ccccc3)nnc21 | > 100 µM (inactive) | > 100 µM (inactive) | – | > 100 µM (inactive) | – | > 100 µM (inactive) | 56.2 µM (inactive) | > 100 µM (inactive) | > 100 µM (inactive) | 79.4 µM (inactive) | > 100 µM (inactive) | 82 µM (inactive) | > 100 µM (inactive) | > 100 µM (inactive) | > 100 µM (inactive) | > 100 µM (inactive) | > 100 µM (inactive) | > 100 µM (inactive) | > 100 µM (inactive) | > 100 µM (inactive)
5 | CN(C)/C=N\c1nncc2[nH]nnc12 | > 100 µM (inactive) | 54.3 µM (inactive) | > 100 µM (inactive) | > 100 µM (inactive) | > 100 µM (inactive) | > 100 µM (inactive) | > 100 µM (inactive) | > 100 µM (inactive) | > 100 µM (inactive) | > 100 µM (inactive) | > 100 µM (inactive) | – | > 100 µM (inactive) | > 100 µM (inactive) | – | > 100 µM (inactive) | > 100 µM (inactive) | > 100 µM (inactive) | > 100 µM (inactive) | > 100 µM (inactive)
6 | CC(=O)OCCc1cc2ccccc2oc1=O | > 100 µM (inactive) | > 100 µM (inactive) | > 100 µM (inactive) | > 100 µM (inactive) | > 100 µM (inactive) | > 100 µM (inactive) | > 100 µM (inactive) | 86.7 µM (inactive) | > 100 µM (inactive) | > 100 µM (inactive) | > 100 µM (inactive) | > 100 µM (inactive) | > 100 µM (inactive) | > 100 µM (inactive) | – | > 100 µM (inactive) | > 100 µM (inactive) | > 100 µM (inactive) | > 100 µM (inactive) | > 100 µM (inactive)
7 | COc1ccc(NC(=S)NC(=O)c2ccc3c(c2)Sc2ccccc2O3)c([N+](=O)[O-])c1 | 30.3 µM (inactive) | 34.4 µM (inactive) | 28.8 µM (inactive) | 44.5 µM (inactive) | – | 20.2 µM (inactive) | 92 µM (inactive) | – | 37.1 µM (inactive) | 14 µM (inactive) | 42.1 µM (inactive) | 14.9 µM (inactive) | 27.6 µM (inactive) | 18.7 µM (inactive) | 29.9 µM (inactive) | 33.6 µM (inactive) | 43.1 µM (inactive) | 33.1 µM (inactive) | 31 µM (inactive) | 28.6 µM (inactive)
8 | CC(=O)Nc1nc2c(=O)c3ccccc3sc2s1 | > 100 µM (inactive) | > 100 µM (inactive) | – | > 100 µM (inactive) | > 100 µM (inactive) | – | > 100 µM (inactive) | > 100 µM (inactive) | > 100 µM (inactive) | > 100 µM (inactive) | > 100 µM (inactive) | – | 34.4 µM (inactive) | > 100 µM (inactive) | – | > 100 µM (inactive) | > 100 µM (inactive) | > 100 µM (inactive) | > 100 µM (inactive) | > 100 µM (inactive)
9 | OC(c1ccccc1)(c1cccnc1)C(O)(c1ccccc1)c1cccnc1 (stereo not given) | > 100 µM (inactive) | – | – | > 100 µM (inactive) | > 100 µM (inactive) | > 100 µM (inactive) | > 100 µM (inactive) | > 100 µM (inactive) | > 100 µM (inactive) | > 100 µM (inactive) | > 100 µM (inactive) | – | > 100 µM (inactive) | > 100 µM (inactive) | > 100 µM (inactive) | > 100 µM (inactive) | > 100 µM (inactive) | > 100 µM (inactive) | > 100 µM (inactive) | > 100 µM (inactive)
10 | O=[N+]([O-])c1cccc(-c2csc(N/N=C3\NC/C(=C/c4ccc5c(c4)OCO5)S3)n2)c1 | 18.8 µM (inactive) | 34.4 µM (inactive) | – | 30.4 µM (inactive) | 37.7 µM (inactive) | 33.4 µM (inactive) | 35 µM (inactive) | 9.02 µM (inactive) | 25.1 µM (inactive) | 24.2 µM (inactive) | 39.4 µM (inactive) | 27.9 µM (inactive) | 33.7 µM (inactive) | 21 µM (inactive) | 26.8 µM (inactive) | 19.6 µM (inactive) | 21.5 µM (inactive) | 35.9 µM (inactive) | 14.3 µM (inactive) | 22.1 µM (inactive)
11 | O=c1[nH]c2ccccc2c2nc3ccccc3n12 | 6.64 µM (inactive) | 36.9 µM (inactive) | – | > 100 µM (inactive) | > 100 µM (inactive) | 46.1 µM (inactive) | 62.4 µM (inactive) | 3.89 µM (inactive) | 83 µM (inactive) | 65.6 µM (inactive) | 33.2 µM (inactive) | 2 µM (inactive) | 21.8 µM (inactive) | 0.61 µM (active) | 14 µM (inactive) | 81.1 µM (inactive) | > 100 µM (inactive) | 38.1 µM (inactive) | > 100 µM (inactive) | –
